Assay: Dissociation constant (Kb, pKb) of the water-soluble compounds

Kb (dissociation constant) | SMILES | pKb
– | O=C([O-])c1ccc(O)cc1.[Na+] [4-Hydroxybenzoic acid Na salt] | 12.1
1 × 10^−3 | O.O.O.O.O.O.O.O.O.[Na+].[Na+].[Na+].[S-]c1nc([S-])nc([S-])n1 [Trisodium trithiocyanurate nonahydrate] | 3

Source: patent US6926936B2, “Ink-jet recording sheet with improved ozone resistance” (Felix Schoeller Jr. Foto-und Spezialpapiere GmbH & Co. KG, priority 2002, dated 2005)
